Test results: patent US8933071B2, “Dimethyl fasudil for inducing polyploidization of megakaryocytes and for treating blood and bone marrow diseases and disorders” (Northwestern University, priority 2008, dated 2015)
“Also recorded” adds a separate entry of the source.

Experiments:
[1] = tested on: CMK cells; experiment: Polyploidization of CMK cells (DNA content); format: cell-based, human; conditions: CMK cells
Procedure: (A) Y10, (B) GIME, and (C) CMK cells were grown in the presence of TPO, SU6656, or vehicle (DMSO) for 72 hours. DNA content was measured by flow cytometry. The percentages of cells that reach a DNA content of ≧8N are boxed in A and C, those equal to 8N are boxed in B. D) CMK cells were grown as in (C), and cell numbers were enumerated at 0, 24, 48 and 72 h.
To study how megakaryocytes switch from a proliferative to endomitotic cell cycle, the Src kinase inhibitor SU6656 is being utilized.
In collaboration with the Broad Institute, a high throughput screen for small molecules was conducted to identify small molecules that preferentially induce polyploidization or differentiation of megakaryocytes. We screened 10,000 compounds from the Broad's extensive collection of small molecules (including known bioactives, kinase and HDAC inhibitors, and natural products) to identify inducers of megakaryocyte polyploidization. […] 6) Data were analyzed using both MetaXpress software and “Cell Profiler,” software designed at MIT and the Broad Institute. […]

[2] = tested on: CMK (human megakaryocytic leukemia) cells; experiment: High throughput screen for inducers of megakaryocyte polyploidization; format: cell-based; conditions: 10 μM, 72 hours, Hoescht stain, high content imaging
Procedure: (§1) In collaboration with the Broad Institute, a high throughput screen for small molecules was conducted to identify small molecules that preferentially induce polyploidization or differentiation of megakaryocytes. We screened 10,000 compounds from the Broad's extensive collection of small molecules (including known bioactives, kinase and HDAC inhibitors, and natural products) to identify inducers of megakaryocyte polyploidization. The screen was performed in the following manner: 1) 4,000 CMK (human megakaryocytic leukemia) cells were plated into each well of a 384-well plate, 2) 100 n1 of compounds (yielding a final concentration of 10 μM) were pinned into the wells, 3) plates were incubated at 37° C. for 72 hours, 4) cells were fixed and stained with Hoescht, and 5) plates were imaged using an ImageXpressMICRO high content imager with 20× objective. Nine images per well were collected. 6) Data were analyzed using both MetaXpress software and “Cell Profiler,” software designed at MIT and the Broad Institute. Seventy-two plates containing duplicates of nearly 10,000 small molecules were screened.

[3] = tested on: GIME cells; format: cell-based; conditions: 10 μM, 48 hours, DMSO 0.3%
Procedure: DNA content was then assessed by flow cytometry. Numbers above the bar indicate % of cells ≧8N. b) After 48 hours, GIME cells from a) were stained with anti-CD42 antibodies and the cell surface expression of CD42 was evaluated by flow cytometry.
as §1

[4] = tested on: erythroid colonies in human MPD bone marrow cultures; format: cell-based; conditions: ET patient bone marrow, 14 days
Procedure: Referring to FIG. 5, bone marrow mononuclear cells from a patient with ET were cultured with two doses of DMF for 10 days.
MPDs Patient Specimens. Mononuclear cells from bone marrow of patients were obtained by informed consent from patients at Northwestern Feinberg School of Medicine. Mononuclear cells were separated from marrow with Ficoll (GE Healthcare life sciences, Piscataway, N.J.) and resuspended in IMDM (Iscove's Modified Dulbecco's Media) media without serum. The cells were stained with 0.4% trypan blue solution for 5 minutes and live cells were counted. Live cells were assayed in CFU-MK (“Colony forming units-megakaryocytes”) and BFU-E (“Burst forming unit-erythroid”) assays as well as in liquid culture.
BFU-E (Burst forming unit-erythroid) assay. Live ET bone marrow cells were added to MethoCult media (4436, StemCell Technologies, Vancouver, BC, Canada) with recombinant human EPO (erythropoeitin, 3 U/mL), recombinant human SCF (stem cell factor, 50 ng/mL), recombinant human GM-CSF (granulocyte macrophage colony-stimulating factor, 10 ng/mL) and recombinant human IL-3 (10 ng/mL). […] Cells were plated in duplicate in 35 mm culture dishes according the manufacturer's protocol. On the 14th day, red colonies composed of hemoglobinized erythroblasts were identified and scored.

[5] = tested on: CD41+ megakaryocytes obtained from human MPD bone marrow; format: cell-based; conditions: ET patient bone marrow, TPO, 5 days
Procedure: Two lead compounds were tested on samples from both MPD (myeloproliferative disease) patients and AMKL (acute megakaryocytic leukemia) patients. […] Referring to FIG. 8, bone marrow samples from patients with AMKL were cultured in DMSO (control) or DMF (at 5 μM) for 14 days. Colonies were stained with anti-CD41 antibody and visualized by microcopy (not shown). Total numbers of CD41+ megakaryocyte colonies are shown.
Mononuclear cells from bone marrow of patients were obtained by informed consent from patients at Northwestern Feinberg School of Medicine. Mononuclear cells were separated from marrow with Ficoll (GE Healthcare life sciences, Piscataway, N.J.) and resuspended in IMDM (Iscove's Modified Dulbecco's Media) media without serum. The cells were stained with 0.4% trypan blue solution for 5 minutes and live cells were counted. Live cells were assayed in CFU-MK (“Colony forming units-megakaryocytes”) and BFU-E (“Burst forming unit-erythroid”) assays as well as in liquid culture.
Marrow cells from ET patients were also cultured in RPMI with 10% FBS in the presence of recombinant human TPO (thrombopoeitin, 50 ng/ml). […] DNA content of both CD41+ cells and CD41-negative cells was analyzed by utilizing a BD LSRII flow cytometer (BD Biosciences San Jose, Calif.).

[6] = tested on: 6133/MPL megakaryocytic leukemia cells; experiment: 6133/MPL transplant model of AMKL, pre-treatment of cells; format: in vivo, C57B1/6 mice
Description: FIG. 9 illustrates that DMF blocks the development of AMKL in vivo. a) Histology of spleens from control and 6133/MPL transplanted mice at 20 days. b) Survival analysis of the effect of DMF pre-treatment on AMKL development in recipient mice. p<0.0005 (Log rank test). N=6 mice (vehicle (DMSO) pre-treatment) or N=7 (DMF pre-treatment) per group.
To determine whether polyploidization-inducing agents can serve as new therapies for AMKL, we established an AMKL animal model. We developed an animal model of AMKL by transplanting 6133/MPL megakaryocytic leukemia cells (35) into sub-lethally irradiated recipient C57B1/6 mice. The parental 6133 cell line, which is dependent upon TPO for survival, was derived from a leukemic mouse that expressed the AMKL t(1:22) fusion protein OTT-MAL by knock-in gene targeting. 6133 cells were then transduced with a MPLW515L expressing retrovirus, and stable TPO-independent clones were isolated. We discovered that C57B1/6 mice transplanted with 1 million 6133/MPL cells developed a fulminant AMKL within 21 days. The disease was characterized by massive infiltration of CD41+ cells in the bone marrow and spleen. These mice will be utilized as animal models to quantify the effect of small molecule inducers of polyploidization on disease progression in vivo.
To determine whether polyploidization-inducing agents can serve as new therapies for AMKL, DMF was assessed in an animal model for AMKL. To this end, an animal model of AMKL was developed by transplanting 6133/MPL megakaryocytic leukemia cells into sub-lethally irradiated recipient C57B1/6 mice. The parental 6133 cell line, which is dependent upon TPO for survival, was derived from a leukemic mouse that expressed the AMKL t(1:22) fusion protein OTT-MAL by knock-in gene targeting (35). […]
C57BL/6 mice (purchased from the Jackson Laboratory, Bar Harbor, Me.) were sub-lethally irradiated with 600 rads. […] Development of disease was assessed with presence of GFP-positive cells in the peripheral blood by FACS and by monitoring the health and body weight of the animals. […]

[7] = tested on: 6133/MPL megakaryocytic leukemia cells; experiment: 6133/MPL transplant model of AMKL, oral gavage treatment; format: in vivo, C57B1/6 mice; conditions: for lifespan: from day 3
Procedure: FIG. 10 illustrates that DMF prevents AMKL in vivo. N=7 per group. […] transplant recipients were treated with two daily doses of vehicle, 33 mg/kg DMF, or 66 mg/kg DMF by oral gavage. Treatment with 33 or 66 mg/kg DMF led to statistically significant extensions in leukemia free survival (p=0.003 and 0.004 respectively).
To determine whether polyploidization-inducing agents can serve as new therapies for AMKL, DMF was assessed in an animal model for AMKL. To this end, an animal model of AMKL was developed by transplanting 6133/MPL megakaryocytic leukemia cells into sub-lethally irradiated recipient C57B1/6 mice. The parental 6133 cell line, which is dependent upon TPO for survival, was derived from a leukemic mouse that expressed the AMKL t(1:22) fusion protein OTT-MAL by knock-in gene targeting (35). 6133 cells were then transduced with a MPLW515L expressing retrovirus, and stable TPO-independent clones were isolated. […] The disease was characterized by massive infiltration of CD41^+ cells in the bone marrow and spleen.
After 3 days, the mice were treated with twice daily doses of DMF for 10 days. Seven mice were utilized per experimental condition. […] With 66 mg/kg nearly 50% of the mice remained disease free for at least 70 days. In contrast, all of mice fed only water (vehicle) died of leukemia by 20 days.
C57BL/6 mice (purchased from the Jackson Laboratory, Bar Harbor, Me.) were sub-lethally irradiated with 600 rads. Mice were then anesthetized by an IP injection of mixture of Ketamine (100 mg/kg) and xylazine (5 mg/kg) 2 hours after irradiation. C57/B16 mice were intravenously injected with 1×10^6 6133/MPL cells, which were labeled with green fluorescent protein (GFP). Two different doses of DMF (33 mg/kg or 66 mg/kg) or water were administered to mice by oral gavage twice daily (b.i.d.) starting on the 3rd day after transplantation. For pre-treatment model, 6133/MPL cells were incubated with 5 μM DMF or DMSO for 24 hours. Live cells treated with DMF or […] were separated with Ficoll and transplanted into sub-lethally irradiated mice. Development of disease was assessed with presence of GFP-positive cells in the peripheral blood by FACS and by monitoring the health and body weight of the animals. Mice were sacrificed based on a protocol that includes assessment of morbidity by >20% loss of weight, severe anemia, scruffy appearance, and/or severe lethargy.

With dimethylfasudil [DMF] the induction of polyploidization [1] was “potent inducer of polyploidization”, the “positive in polyploidization screen” value [2] was “positives” and the “expression of the late megakaryocyte marker CD42” value [3] was 66.3%. For the same substance, the “formation of aberrant erythroid colonies” value [4] was “potently blocked formation”, the “polyploidization of bone marrow megakaryocytes” value [5] was “potently induced polyploidization” and the “development/progression of AMKL in recipient mice” value ([6]; 6133/MPL cells pre-treated with 5 μM for 24 hours before transplant) was “interfered with their ability to cause a tumor; also recorded: striking and significant delay in progression of AMKL”. For the same substance, the “time mice healthy with no signs of disease” value ([6]; all mice implanted with cells pre-treated with 5 μM for 24 hours) was “at least 200 days”, the “survival analysis p (Log rank test)” value ([6]; pre-treatment vs vehicle (DMSO) pre-treatment) was less than 0.0005 and the “leukemia free survival p” value ([7]; 33 mg/kg by oral gavage vs vehicle) was 0.003. The lifespan ([7]; 33 mg/kg twice daily oral gavage for 10 days) was “significant extensions in lifespan”, the “leukemia free survival p” value ([7]; 66 mg/kg by oral gavage vs vehicle) was 0.004 and the “mice remaining disease free for at least 70 days” value ([7]; 66 mg/kg twice daily oral gavage) was roughly 50%. For the same substance, the lifespan ([7]; 66 mg/kg twice daily oral gavage for 10 days) was “significant extensions in lifespan” and the “long-term survival of mice” value ([7]; feeding to mice) was “up to 50%”.
